Measurements as given in patent US20260092039A1, “DUAL INHIBITORS FOR THE TREATMENT OF ALZHEIMER'S DISEASE” (UNIVERSITAT DE BARCELONA, priority 2023, published 2026).

System: LPS stimulated BV2 cells
Test: Cytokine release in LPS stimulated BV2 cells
Assay type: cell-based, murine
Details: 24 h
Method: Compounds of formula I were diluted from 250 mM DMSO stock solutions to a 10 mM stock in DMSO. Thereafter, the compounds were diluted to 10 μM and 1 μM in medium, so that the final DMSO concentration in the well was 0.1% for all conditions. The stock solutions were stored at −20° C. until further use.
Culture and treatment of BV-2 cells: The murine microglial cell line BV-2 was cultivated in Dulbecco's modified eagle medium (DMEM) supplemented with 10% fetal calf serum (FCS), 1% penicillin/streptomycin and 2 mM L-glutamine (culture medium). For the lipopolysaccharide (LPS) stimulation assay, 20,000 BV-2 cells per well (uncoated 96 well plates) were plated out. After 48 h, the medium was changed to treatment medium (DMEM, 5% FCS, 2 mM L-glutamine) and cells were maintained in treatment medium for the remaining culture period. After changing cells to treatment medium, the compounds were administered 1 h before LPS stimulation (Sigma-Aldrich; L6529; 1 mg/mL stock in ddH2O, final concentration in well: 100 ng/mL (dilutions in medium)). Cells treated with vehicle and LPS alone served as controls. All wells were handled the same way. After 24 h of stimulation, cell supernatants were collected for the cytokine measurement. The experiment was performed in n=6 technical replicates for all groups.
Cytokine measurement: The samples were diluted 1:2 and analysed for 4 cytokines (IL-1β, IL-2, IL-6, TNF-α) with a commercially available immunosorbent assay kit (U-plex, K15069L, Mesoscale Discovery) according to the instructions of the manufacturer. In brief, 25 μL of diluent 41 and 25 μL sample or respective standard were placed into wells of the pre-coated U-plex plate and incubated on an orbital shaker at room temperature for 1 h. Plates were washed 3 times with phosphate buffered saline with 0.05% Tween 20 (PBST) and thereafter 50 μL of detection antibody were added. Plates were again incubated on an orbital shaker at room temperature for 1 h. After another 3 washing steps with PBST, 150 μL of Mesoscale Discovery (MSD) GOLD Read Buffer were added and plates were read on Sector imager. Data were evaluated in comparison to calibration curves provided in the kit.
Statistics: Basic statistical analysis was performed. Group differences were evaluated by e.g. one-way ANOVA followed by a posthoc test, if appropriate.

SMILES | IL-1β level (compound 1 μM) | IL-2 level (compound 1 μM) | IL-6 level (compound 1 μM) | TNF-α level (compound 1 μM) | IL-1β level (compound 10 μM) | IL-2 level (compound 10 μM) | IL-6 level (compound 10 μM) | TNF-α level (compound 10 μM)
CCC12CC3CC(C1)CC(NC(=O)NCCCn1cncc1C)(C3)C2 [Id, 1-(3-ethyladamantan-1-yl)-3-[3-(5-methyl-1H-imidazol-1-yl)propyl]urea] | 46 % of vehicle control | 38 % of vehicle control | 34 % of vehicle control | 98 % of vehicle control | 73 % of vehicle control | 26 % of vehicle control | 24 % of vehicle control | 84 % of vehicle control
Cc1cncn1CCCNC(=O)NC1C2CC3CC(C2)CC1C3 (centres unmarked) [Ii, 1-(adamantan-2-yl)-3-[3-(5-methyl-1H-imidazol-1-yl)propyl]urea] | 86 % of vehicle control | 66 % of vehicle control | 63 % of vehicle control | 104 % of vehicle control | 125 % of vehicle control | 48 % of vehicle control | 62 % of vehicle control | 103 % of vehicle control
Cc1cncn1CCCNC(=O)NC12CC3CC(CC(C)(C3)O1)C2 [Ir, 1-[3-(5-methyl-1H-imidazol-1-yl)propyl]-3-(3-methyl-2-oxaadamantan-1-yl)urea] | 77 % of vehicle control | 52 % of vehicle control | 37 % of vehicle control | 107 % of vehicle control | 94 % of vehicle control | 37 % of vehicle control | 38 % of vehicle control | 102 % of vehicle control
CCC12CC3CC(C1)CC(NC(=O)NCCCn1cncc1C)(C3)O2 [Is, 1-(3-ethyl-2-oxaadamantan-1-yl)-3-[3-(5-methyl-1H-imidazol-1-yl)propyl]urea] | 95 % of vehicle control | 66 % of vehicle control | 65 % of vehicle control | 104 % of vehicle control | 124 % of vehicle control | 48 % of vehicle control | 64 % of vehicle control | 104 % of vehicle control
